Experimental data from patent US12624013B2, “Purification of 2,5-furandicarboxylic acid, dimethyl ester and other esterified products” (Archer Daniels Midland Company, priority 2020, dated 2026).

Columns and labels:
Assay type in all cases: physicochemical
[1] = Solubility of FDME in various solvents (sonicated 15 minutes at 35° C.); conditions: for Solubility remarks / FDME solubility limits: 35° C.
Description: An impure solid FDME sample, obtained from the esterification of FDCA with methanol, was determined to have 82.6 wt-% FDME (dimethyl ester), in addition to 10.4 wt-% of the monomethyl ester, FDMME, resulting from incomplete esterification. The sample also contained 0.35 wt-% of the FDCA starting compound and 0.58 wt-% of the aldehyde contaminant, FFME. In separate solubility studies with different solvents, various amounts of this sample were charged to a scintillation vial, and in each case 10 ml of solvent was added.

[2] = Storage stability of purified FDME crystals in ambient air; conditions: 3.5 years
Description: A 200 gram sample of a dried, impure mixture (crude composition comprising FDME) obtained from the esterification of FDCA with methanol to FDME was added to a 500 ml Erlenmeyer flask equipped with a PTFE magnetic stir bar. This solid composition was determined by UPLC-PDA to be 80 wt-% FDME, 18 wt-% FDMME, and 2 wt-% FDCA. Approximately 100 ml of methylene chloride was added to the flask, followed by 100 ml of 5 wt-% sodium bicarbonate. The biphasic solution was vigorously stirred for 30 minutes and transferred to a 1 liter separatory flask, which was used to remove the bottom organic phase. The top aqueous phase was extracted 2 times with additional extraction quantities, 30 ml each, of methylene chloride. These additional extraction quantities were combined with the organic phase, and the combined liquids were transferred to a 500 ml Wheaton bottle and placed in the freezer overnight. […] The retained crystals were dried with a stream of argon for 1 hour, determined to have a weight of 58.7 grams, and then stored in a 250 ml Wheaton bottle. A purity analysis of the crystals of the purified composition was carried out by quantitative ^1H NMR, indicating these to be 99.98 wt-% pure. The crystals were stored in ambient air and in a bottle on a tabletop.

[3] = CIE 1976 (L*a*b*) colorimetry of stored purified FDME composition; conditions: after storage over 3 years in ambient air
Description: In this regard, the color of the purified FDME composition was evaluated quantitatively by determining its chromaticity coordinates in the L*a*b* color space. This refers to a particular color space of different color systems of the CIE, or Commission Internationale de l'Echairage (International Commission of Illumination), which color systems were developed as a way to standardize color, or express color values numerically, and thereby remove the subjectivity of the human observer. The CIE 1976 (L*a*b*) color space is based on the opponent-colors theory of color vision, according to which two colors cannot be both green and red at the same time, nor blue and yellow at the same time. Therefore, single values can be used to describe the red/green and the yellow/blue attributes of a sample. In this regard, when a color is expressed using the L a*b* color space, the respective coordinates of L*, a*, and b* denote lightness, the red/green value, and the yellow/blue value, with these coordinates ranging from −100 to +100. For purposes of characterizing compositions described herein with respect to yellow color, the value of b* is particularly relevant. The assessment of the L*, a*, and b* coordinates of the purified FDME composition was performed using a commercially available colorimeter from Konica Minolta, model CM-5.
(§1) To prepare a first sample, Sample #1, of the purified FDME composition for color analysis, a 0.597 gram portion of the composition was dissolved in 9.414 grams of a solvent mixture of 1:1 (v/v) acetonitrile/isopropanol, such that Sample #1 contained 5.96 wt-% of the dissolved composition. A second sample, Sample #2 was prepared by dissolving a 0.592 gram portion of the composition in 9.406 grams of this solvent, such that Sample #2 contained 5.92 wt-% of the dissolved composition. For each sample having a target concentration of 6 wt-% dissolved solids, two CIE 1976 (L*a*b*) colorimetry measurements and two APHA measurements were performed.

[4] = APHA color (ASTM D1209) of stored purified FDME composition; conditions: Average of Samples #1 and #2, two measurements each; after storage over 3 years in ambient air
Description: Another color measurement, which is referred to as APHA color, was also determined for the purified FDME composition according to ASTM D1209. APHA color is also known as the Hazen scale, as well as the platinum cobalt (Pt/Co) scale. APHA is a color standard named for the American Public Health Association that was originally intended to describe the color of wastewater, but its usage has expanded to include other applications. APHA color is a color scale sometimes referred to as a “yellowness index” that is used to assess the quality of liquids that are clear to yellowish in color.
as §1

[5] = Room temperature solubility of FDME in methanol; conditions: content of mother liquor
Description: The combination of filtration with diatomaceous earth and crystallization was investigated for its effectiveness in purifying a crude composition of FDME, having weight percentages of individual compounds as described in Example 1. A 105 gram sample of this crude composition was ground and dissolved in 700 ml of methanol to provide a 15 wt-% stock solution of the crude composition, which was maintained at 55° C. in a water bath with shaking. A 300 gram portion of this stock solution was removed and diluted to 2 wt-% dissolved solids, or approximately the room temperature solubility, and filtered on a 2″ diatomaceous earth (DE) filter using a Buchner funnel. Following this DE filtration, the solution was concentrated back to 20 wt-% in a crystallizer using a vacuum pump to evaporate the methanol solvent. […] Stirring at 100 rpm was maintained during the cooling, and the particle size distribution was determined in real time. […] It was determined that a 2-hour residence time at 35° C. and subsequent cooling to 30° C. leads to significant nucleation. […]
The solids from crystallization were emptied onto a Buchner funnel filter, and the crystals were sprayed with room temperature methanol. […] Following this single stage of crystallization, 67% of the FDME from the crude composition was recovered in the purified composition, which was determined to be 99.05 wt-% FDME and 0.86 wt-% FDMME. […]

[6] = Average of Samples #1 and #2, two measurements each
[7] = single measurements, about 6 wt-% in 1:1 (v/v) acetonitrile/isopropanol

Solubility of crude compositions, summary in words ([1]; in methylene chloride, acetonitrile, N,N′-dimethylformamide, 1,4-dioxane, 1,1,2,2-tetrachloroethane, ethyl acetate, tetrahydrofuran, pyridine, acetone, dimethyl sulfoxide): favorable solubility
Solubility remarks ([1]; solvent 1,1,2,2-tetrachloroethane): Very soluble
FDME solubility limits ([1]; solvent 1,1,2,2-tetrachloroethane, impure FDME sample (82.6 wt-% FDME)): 23-27 wt-%
FDME solubility limits ([1]; solvent 1,3-Propanediol): <8 wt-%
Solubility remarks ([1]; solvent 1,3-Propanediol): Insoluble
FDME solubility limits ([1]; solvent 1,4-Dioxane): 23-28 wt-%
Solubility remarks ([1]; solvent 1,4-Dioxane): Very soluble
FDME solubility limits ([1]; solvent Acetone): 12-20 wt-%
Solubility remarks ([1]; solvent Acetone): Soluble
FDME solubility limits ([1]; solvent Acetonitrile): >39 wt-%
Solubility remarks ([1]; solvent Acetonitrile): Exceptionally soluble
FDME solubility limits ([1]; solvent Dimethyl sulfoxide): 9-13 wt-%
Solubility remarks ([1]; solvent Dimethyl sulfoxide): Soluble
FDME solubility limits ([1]; solvent Ethanol): <10 wt-%
Solubility remarks ([1]; solvent Ethanol): Insoluble
FDME solubility limits ([1]; solvent Ethyl Acetate): 18-25 wt-%
Solubility remarks ([1]; solvent Ethyl Acetate): Very soluble
FDME solubility limits ([1]; solvent Ethylene Glycol): <8 wt-%
Solubility remarks ([1]; solvent Ethylene Glycol): Insoluble
FDME solubility limits ([1]; solvent Methanol): <11 wt-%
Solubility remarks ([1]; solvent Methanol): Insoluble
FDME solubility limits ([1]; solvent Methyl-t-butyl ether): <10 wt-%
Solubility remarks ([1]; solvent Methyl-t-butyl ether): Insoluble
FDME solubility limits ([1]; solvent Methylene Chloride): 27-31 wt-%
Solubility remarks ([1]; solvent Methylene Chloride): Very soluble
FDME solubility limits ([1]; solvent N,N′-dimethylformamide): 30-35 wt-%
Solubility remarks ([1]; solvent N,N′-dimethylformamide): Very soluble
FDME solubility limits ([1]; solvent Pyridine): 17-23 wt-%
Solubility remarks ([1]; solvent Pyridine): Very soluble
FDME solubility limits ([1]; solvent THF): 17-23 wt-%
Solubility remarks ([1]; solvent THF): Very soluble
FDME solubility limits ([1]; solvent Toluene): <10 wt-%
Solubility remarks ([1]; solvent Toluene): Insoluble
Purity on storage (stability) ([2]; crystals initially 99.98 wt-% pure, stored in ambient air in a bottle on a tabletop): maintained
L* [3, 6]: 99.43
a* [3, 6]: −0.01
b* [3, 6]: 0.39
L* [3, 7]: > 99
a* [3, 7]: < 0.5
b* [3, 7]: < 0.5
Hazen/APHA [4]: 12
Room temperature solubility in methanol [5]: approximately 2 wt-%
Structure (SMILES): COC(=O)c1ccc(C(=O)OC)o1 [FDME, 2,5-furandicarboxylic acid, dimethyl ester]
Appearance on storage (color stability, flow) ([2]; stored in ambient air): very little development of off-white color
